Target: Hsp90α (Homo sapiens, UniProt P07900)
Assay: SPR
Assay type: binding

CN1C(=O)[C@@]23C[C@]4([C@]56C[C@@]78SS[C@@](CO)(C(=O)N7[C@H]5Nc5ccccc56)N(C)C8=O)c5ccccc5N[C@@H]4N2C(=O)[C@]1(CO)SS3 [Chaetocin]
Kd: 2820 nM

— PMC7771846 (Biomolecules & Therapeutics, 2020)
